{
  "source": "patent US20220127258A1",
  "about": "“AROMATIC RING OR HETEROAROMATIC RING COMPOUNDS, PREPARATION METHOD THEREFOR AND MEDICAL USE THEREOF” (The National Institutes of Pharmaceutical R&D Co., Ltd., priority 2019, published 2022)",
  "experiment": "Visual inspection of solubility of test sample in extracellular fluid",
  "format": "physicochemical",
  "settings": "0.3 μM to 30 μM solutions in extracellular fluid pH 7.4, from DMSO stock",
  "description": "Extracellular fluid: 140 mM NaCl, 3.5 mM KCl, 1 mM MgCl2, 2 mM CaCl2, 10 mM glucose, 10 mM HEPES, 1.25 mM NaH2PO4, pH=7.4 (adjusted by NaOH). The stock solution of the compound of Example 8 of the present invention (30.26 mM solution in DMSO) was successively diluted with 10 mL of extracellular fluid to obtain 0.3 μM, 1 μM, 3 μM, […], and 30 μM solutions. […] 10 mg of Cisapride was dissolved in 2066.29 μL of dimethyl sulfoxide (DMSO) to obtain a 10 mM stock solution. The Cisapride stock solution was successively diluted with dimethyl sulfoxide (DMSO) to obtain a total of 4 concentrations of 1 μM, 10 μM, 100 μM and 1 mM. Before the test, 10 μL of the diluent at each concentration was added to 10 mL of extracellular fluid to ensure that the DMSO concentration was 0.1%. The final working concentration of Cisapride was 1 nM, 10 nM, 100 nM and 1 μM.",
  "data": [
    {"smiles": "O=C(O)c1ccc(-c2nnc(N3[C@@H]4CC[C@H]3C[C@@H](OCc3c(-c5c(Cl)cccc5Cl)noc3C3CC3)C4)o2)cc1", "note": "[Example 8, 4-(5-((1R,3r,5S)-3-((5-cyclopropyl-3-(2,6-dichlorophenyl)isoxazol-4-yl)methoxy)-8-azabicyclo[3.2.1]octan-8-yl)-1,3,4-oxadiazol-2-yl)benzoic acid]", "values": [
      {"measurement": "solubility of the test sample, visually inspected", "result": "completely dissolved without visible precipitation"}
    ]}
  ]
}
